6 compounds from ChEMBL document CHEMBL3044984, “Synthesis of 2-(5, 7-Difluoro-3-indolyl)-propionic Acid (5, 7-F2-IPA) and 2-(5, 7-Difluoro-3-indolyl)isobutyric Acid (5, 7-F2-IIBA) and Their Respective Auxin and Antiauxin Activities” (2001) can be followed below.

Activity calls are given as the source filed them. The calls are words filed in the database; no cut-off is given here.

Experiment [1] has as its system Avena sativa. The experiment in a line: Antiauxin activity in Avena sativa cv. Victory-1 assessed as auxin-induced growth inhibition at 10^-5 to 10^-4 M. The experiment is classed as functional, organism-based.
Experiment [2] deals with Avena sativa. The experiment in a line: Auxin activity in Avena sativa cv. Victory-1 assessed as increase of auxin-induced growth at 10^-5 M. The experiment is classed as functional.
Experiment [3] concerns Avena sativa. The experiment in a line: Auxin activity in Avena sativa cv. Victory-1 assessed as coleoptile elongation at 3 x 10^-6 M. Type of experiment: functional, organism-based.
Experiment [4] has as its system Avena sativa. Briefly: Antiauxin activity in Avena sativa cv. Victory-1 assessed as growth inhibition at 1 x 10^-4 M. Type of experiment: functional, organism-based.
In experiment [5] the test system is Avena sativa. The experiment in a line: Auxin activity in Avena sativa cv. Victory-1 assessed as coleoptile elongation. The experiment is classed as functional, organism-based.
Experiment [6] relates to Avena sativa. Briefly: Auxin activity in Avena sativa cv. Victory-1 assessed as increase of auxin-induced growth at 5.6 x 10^-5 M. The experiment is classed as functional, organism-based.
Experiment [7] has as its system Avena sativa. The experiment in a line: Antiauxin activity in Avena sativa cv. Victory-1 assessed as auxin-induced growth inhibition at 3 x 10^-5 M. Type of experiment: functional, organism-based.
For experiment [8], the system named is Avena sativa. Briefly: Antiauxin activity in Avena sativa cv. Victory-1 assessed as growth inhibition. The experiment is classed as functional, organism-based.

As for `CC(C)(C(=O)O)c1c[nH]c2c(F)cc(F)cc12`, the “growth inhibition (GI)” value in experiment [1] and in experiment [4] was “Active” in each case. Moreover, the Activity in experiment [2] stood at 80%. The result in experiment [3] and in experiment [5] was Active.
On to `CC(C(=O)O)c1c[nH]c2c(F)cc(F)cc12` (centres undefined), for which the outcome in experiment [3] and in experiment [5] was Active. Besides, in experiment [4], the “growth inhibition (GI)” value is “Active”.
`O=C(O)Cc1c[nH]c2ccccc12`: the result in experiment [6] was inactive. The “growth inhibition (GI)” value in experiment [7] was “Active”. Also, the result in experiment [5] was Active.
Take `CC(C)(C(=O)O)c1c[nH]c2c(Cl)cc(Cl)cc12`: the result in experiment [5] was inactive.
As to `O=C(O)Cc1c[nH]c2c(F)cc(F)cc12`, the “growth inhibition (GI)” value in experiment [8] was “Active”.
With `CC(C)(C(=O)O)c1c[nH]c2ccccc12`, the “growth inhibition (GI)” value in experiment [8] is “inactive”.
